Holding throughout (assay): growth of human tumour cells (NCI), 48 h
In assay [1] the test system is A549.
In assay [2] the test system is CCRF-CEM.
In assay [3] the test system is COLO 205.
Assay [4] concerns DMS-114.
The test system of assay [5] is EKVX.
In assay [6] the test system is HCT-116.
Assay [7] relates to K562.
The subject of assay [8] is KM12.
Assay [9] relates to MOLT-4.
For assay [10], the system named is NCI-H23.
Assay [11] concerns SK-MEL-28.
Assay [12] has as its system SNB-19.
Assay [13] relates to SW-620.
Assay [14] concerns TK-10.
Assay [15] relates to U-251.
The test system of assay [16] is HCT-15.

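How tested: cells in 96-well plates exposed to compound for 48 hours at five concentrations. GI50: concentration for 50% inhibition of growth.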 Calls of active or inactive are those of the source. Cut-off read from the data, not from the text of the source: active = GI50 up to about 1.1 µM and inactive = higher.

As to `Cc1ccc(NC(=O)CC2Sc3ccccc3NC2=O)c(C)c1` (stereo unspecified), the GI50 is 16 µM (inactive) in assay [1]; 10.7 µM (inactive) in assay [2]; 8.55 µM (inactive) in assay [3]; 17.9 µM (inactive) in [4]; 46.7 µM (inactive) in [5]; 10.3 µM (inactive) in assay [6]. Further, the GI50 in assay [7] was 4.01 µM (inactive); in [8] it was 4.88 µM (inactive); in assay [9], 6.71 µM (inactive); in [10], 16.2 µM (inactive); in assay [11], 20.1 µM (inactive); in assay [12], 14.7 µM (inactive). In addition, the figures for the GI50 in assay [13], in assay [14] and in [15] were 11.4 µM (inactive), 20.2 µM (inactive) and 14 µM (inactive), respectively.

As for `NC(CCSCC(F)F)C(=O)O` (stereo unspecified), the GI50 in assay [1], in assay [2], in [3], in [4], in assay [5] and in assay [6] was > 100 µM (inactive) each time. Besides, the GI50 in assay [16] was more than 100 µM; in [7], > 100 µM (inactive); in assay [8] it was > 100 µM (inactive); in [9] it was > 100 µM (inactive); in assay [10] it was > 100 µM (inactive); in assay [11], > 100 µM (inactive). The GI50 in [12], in [13], in assay [14] and in assay [15] was > 100 µM (inactive) in each case.

Turning to `CC(C)OP(=O)(OC(C)C)/C(Cl)=N/Nc1ccc([N+](=O)[O-])cc1`, the GI50 in assay [1] is > 100 µM (inactive); in assay [2], 59 µM (inactive); in assay [3], > 100 µM (inactive); in assay [4], 81.8 µM (inactive); in assay [5] it was > 100 µM (inactive); in [6], > 100 µM (inactive). Besides, the GI50 in assay [16] was more than 100 µM; in assay [7] it was 38.7 µM (inactive); in [8], > 100 µM (inactive); in assay [9], 53.6 µM (inactive); in assay [10], > 100 µM (inactive); in [11], > 100 µM (inactive). Further, the GI50 in [12], in [13], in [14] and in assay [15] was > 100 µM (inactive) throughout.

`COc1ccc(/C=N/N=C(\N)NO)c(OC)c1`: the GI50 in assay [1] was 31.8 µM (inactive); in [2], 79.8 µM (inactive); in [3], 49.7 µM (inactive); in assay [4], 18.1 µM (inactive); in [5], 38.3 µM (inactive); in [6], 52 µM (inactive). In addition, the GI50 is 26.9 µM in assay [16]; 15.7 µM (inactive) in assay [7]; 30.3 µM (inactive) in [8]; 77.6 µM (inactive) in assay [9]; 46.7 µM (inactive) in assay [10]; > 100 µM (inactive) in assay [11]. Moreover, the GI50 in [12] is > 100 µM (inactive); in [13], 45.4 µM (inactive); in [15], > 100 µM (inactive).

Regarding `COc1cc([C@@H]2c3cc4c(cc3[C@@H](NC(=O)c3cccc(F)c3)C3COC(=O)[C@@H]32)OCO4)cc(OC)c1O` (stereo partly specified), the GI50 is 0.0327 µM (active) in assay [1]; 0.111 µM (active) in [2]; 3.52 µM (inactive) in assay [3]; 0.607 µM (active) in [4]; 2.1 µM (inactive) in [5]; 1.76 µM (inactive) in assay [6]. Besides, the GI50 in assay [16] is 1.45 µM; in assay [7], 1.61 µM (inactive); in assay [8] it was 1.76 µM (inactive); in [9] it was < 0.01 µM (active); in [10], 0.522 µM (active); in [11], 2.94 µM (inactive). Moreover, the GI50 is 0.664 µM (active) in assay [12], 0.738 µM (active) in [13], 3.35 µM (inactive) in assay [14] and 0.109 µM (active) in assay [15].

As for `CC1=CP(=O)(c2ccccc2)C=C(C)C1=C(Cl)Cl` (stereo unspecified), the GI50 in [1] is 6.24 µM (inactive); in assay [2], 3.93 µM (inactive); in assay [3], 4.45 µM (inactive); in [4], 10.8 µM (inactive); in assay [6], 3.2 µM (inactive); in [7], 3.21 µM (inactive). For the same compound, the GI50 in assay [8] is 3.37 µM (inactive); in [9] it was 3.91 µM (inactive); in assay [10], 17.4 µM (inactive); in assay [11] it was 11.2 µM (inactive); in assay [12] it was 17.7 µM (inactive); in [13], 3.82 µM (inactive). Moreover, the figures for the GI50 in [14] and in assay [15] were 4.68 µM (inactive) and 6.71 µM (inactive), respectively.

In the case of `COc1cc2c(cc1OC)-c1c(cc(OC)c(OC)c1OC)C2=O`, the GI50 in assay [1] was > 100 µM (inactive); in assay [2], 81.7 µM (inactive); in [3], > 100 µM (inactive); in assay [4], > 100 µM (inactive); in assay [5], > 100 µM (inactive); in [6], > 100 µM (inactive). For the same compound, the GI50 in [16] was more than 100 µM; in assay [7], > 100 µM (inactive); in [8], > 100 µM (inactive); in assay [9], > 100 µM (inactive); in [10] it was > 100 µM (inactive); in [11], > 100 µM (inactive). Further, the GI50 in assay [12], in assay [13], in [14] and in [15] was > 100 µM (inactive) throughout.

Turning to `O=C1C2Nc3ccccc3SC2C(=O)N1c1ccc(Br)cc1` (stereo unspecified), the GI50 in assay [1] is 31.6 µM (inactive); in assay [2] it was > 10 µM (inactive); in [3] it was 55.5 µM (inactive); in [4], 13.5 µM (inactive); in assay [5] it was 23.4 µM (inactive); in assay [16] it was 78.7 µM. Besides, the GI50 was 21.9 µM (inactive) in assay [7]; 28.2 µM (inactive) in assay [8]; 25.4 µM (inactive) in [9]; 36.5 µM (inactive) in [10]; 62.2 µM (inactive) in assay [11]; 34.3 µM (inactive) in assay [12]. Moreover, the GI50 in assay [13] is 45 µM (inactive); in assay [14] it was 28.8 µM (inactive).

As to `Cc1cc(C(=O)N2CCN(Cc3ccccc3)CC2)c(C)o1`, the GI50 in [1] was > 100 µM (inactive); in [2], > 100 µM (inactive); in assay [4], > 100 µM (inactive); in [5] it was > 100 µM (inactive); in assay [6], > 100 µM (inactive); in assay [16], more than 100 µM. For the same compound, the GI50 in [7], in assay [8], in assay [9], in assay [10], in assay [11] and in assay [12] was > 100 µM (inactive) each time. The GI50 in assay [13], in assay [14] and in assay [15] was > 100 µM (inactive) throughout.

With `COc1cc(O)c2c(c1)O[C@@H]1OCC[C@H]21`, the GI50 in assay [1], in assay [2], in assay [3], in assay [4], in assay [5] and in [6] was > 100 µM (inactive) each time. The GI50 is more than 100 µM in [16]; > 100 µM (inactive) in assay [7]; > 100 µM (inactive) in assay [8]; > 100 µM (inactive) in assay [9]; > 100 µM (inactive) in assay [10]; > 100 µM (inactive) in assay [11]. Further, the GI50 in assay [12], in assay [13], in [14] and in assay [15] was > 100 µM (inactive) in each case.

In the case of `CCOC(=O)NC(=O)c1cn(CCCOC(=O)NCCCCCCNC(=O)OCCCn2c(=O)c(C(=O)NC(=O)OCC)cn(C)c2=O)c(=O)n(C)c1=O`, the GI50 is > 100 µM (inactive) in assay [1]; > 100 µM (inactive) in assay [2]; > 100 µM (inactive) in assay [3]; > 100 µM (inactive) in [4]; > 100 µM (inactive) in assay [6]; more than 100 µM in assay [16]. For the same compound, the GI50 in assay [7], in assay [8], in [9], in assay [10], in assay [11] and in assay [13] was > 100 µM (inactive) each time. The GI50 in assay [14] was 88.7 µM (inactive); in assay [15], 61.2 µM (inactive).

In the case of `Nc1ncnc2c1ncn2C1(CO)OC(CO)C(O)C1O` (stereo unspecified), the GI50 was > 100 µM (inactive) in assay [1]; > 100 µM (inactive) in [2]; > 100 µM (inactive) in assay [3]; > 100 µM (inactive) in [4]; > 100 µM (inactive) in assay [6]; more than 100 µM in [16]. Also, the GI50 in [8], in assay [9], in [10], in assay [11], in assay [12] and in [13] was > 100 µM (inactive) throughout. For the same compound, the GI50 in assay [14] and in [15] was > 100 µM (inactive) each time.

As for `Clc1cc2nc[nH]c2cc1Cl`, the GI50 was > 100 µM (inactive) in assay [1]; > 100 µM (inactive) in [2]; > 100 µM (inactive) in assay [3]; > 100 µM (inactive) in assay [4]; > 100 µM (inactive) in assay [5]; more than 100 µM in assay [16]. The GI50 in assay [7] was > 100 µM (inactive); in [8], 71.8 µM (inactive); in assay [9], > 100 µM (inactive); in assay [10], > 100 µM (inactive); in assay [11], > 100 µM (inactive); in [12] it was > 100 µM (inactive). Moreover, the GI50 in assay [13], in [14] and in [15] was > 100 µM (inactive) in each case.

Source of the values: ChEMBL document CHEMBL1201862, “PubChem BioAssay data set” (2004).
